We go through three compounds from patent US12479847B2 (DANA-FARBER CANCER INSTITUTE, INC., priority 2019, dated 2025).

What all share (experiment): KINOMEscan (ScanMAX) kinase profiling
Assay type in all cases: binding

Test [1] deals with T1, panel of 468 kinases (Homo sapiens, UniProt O00141).
T1 construct: purchased KINOMEscan (ScanMAX) service
T1 sequence (O00141 1-431): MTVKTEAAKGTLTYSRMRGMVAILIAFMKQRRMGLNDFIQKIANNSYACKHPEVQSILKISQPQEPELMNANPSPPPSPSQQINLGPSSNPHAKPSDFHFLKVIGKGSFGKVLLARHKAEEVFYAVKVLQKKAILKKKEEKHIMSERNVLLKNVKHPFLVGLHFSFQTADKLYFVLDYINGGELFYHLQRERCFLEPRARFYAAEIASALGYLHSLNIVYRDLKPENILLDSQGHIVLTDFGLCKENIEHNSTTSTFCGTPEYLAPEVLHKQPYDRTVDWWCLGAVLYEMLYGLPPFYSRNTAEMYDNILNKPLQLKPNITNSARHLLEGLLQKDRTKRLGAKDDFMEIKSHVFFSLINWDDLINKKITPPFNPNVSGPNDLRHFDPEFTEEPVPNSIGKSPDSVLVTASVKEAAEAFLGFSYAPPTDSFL
The conditions noted are these: SGK; 1 μM; read-out: % control.

For test [2], the target named is T2, panel of 468 kinases (Homo sapiens, UniProt Q9BUB5).
T2 construct: purchased KINOMEscan (ScanMAX) service
Conditions: MKNK1; 1 μM; read-out: % control.

For test [3], the target named is T3, panel of 468 kinases (Homo sapiens, UniProt P42336, H1047Y).
T3 construct: purchased KINOMEscan (ScanMAX) service
The conditions noted are these: PIK3CA(H1047Y); 1 μM; read-out: % control.

The target of test [4] is T4, panel of 468 kinases (Homo sapiens, UniProt Q8N568).
T4 construct: purchased KINOMEscan (ScanMAX) service
Conditions: DCAMKL2; 1 μM; read-out: % control.

Test [5] addresses T5, panel of 468 kinases (Homo sapiens, UniProt P42338).
T5 construct: purchased KINOMEscan (ScanMAX) service
Conditions: PIK3CB; 1 μM; read-out: % control.

Test [6] has as its target T6, panel of 468 kinases (Homo sapiens, UniProt P04629).
T6 construct: purchased KINOMEscan (ScanMAX) service
The conditions noted are these: TRKA; 1 μM; read-out: % control.

Test [7] deals with T7, panel of 468 kinases (Homo sapiens, UniProt Q16832).
T7 construct: purchased KINOMEscan (ScanMAX) service
T7 sequence (Q16832 22-855): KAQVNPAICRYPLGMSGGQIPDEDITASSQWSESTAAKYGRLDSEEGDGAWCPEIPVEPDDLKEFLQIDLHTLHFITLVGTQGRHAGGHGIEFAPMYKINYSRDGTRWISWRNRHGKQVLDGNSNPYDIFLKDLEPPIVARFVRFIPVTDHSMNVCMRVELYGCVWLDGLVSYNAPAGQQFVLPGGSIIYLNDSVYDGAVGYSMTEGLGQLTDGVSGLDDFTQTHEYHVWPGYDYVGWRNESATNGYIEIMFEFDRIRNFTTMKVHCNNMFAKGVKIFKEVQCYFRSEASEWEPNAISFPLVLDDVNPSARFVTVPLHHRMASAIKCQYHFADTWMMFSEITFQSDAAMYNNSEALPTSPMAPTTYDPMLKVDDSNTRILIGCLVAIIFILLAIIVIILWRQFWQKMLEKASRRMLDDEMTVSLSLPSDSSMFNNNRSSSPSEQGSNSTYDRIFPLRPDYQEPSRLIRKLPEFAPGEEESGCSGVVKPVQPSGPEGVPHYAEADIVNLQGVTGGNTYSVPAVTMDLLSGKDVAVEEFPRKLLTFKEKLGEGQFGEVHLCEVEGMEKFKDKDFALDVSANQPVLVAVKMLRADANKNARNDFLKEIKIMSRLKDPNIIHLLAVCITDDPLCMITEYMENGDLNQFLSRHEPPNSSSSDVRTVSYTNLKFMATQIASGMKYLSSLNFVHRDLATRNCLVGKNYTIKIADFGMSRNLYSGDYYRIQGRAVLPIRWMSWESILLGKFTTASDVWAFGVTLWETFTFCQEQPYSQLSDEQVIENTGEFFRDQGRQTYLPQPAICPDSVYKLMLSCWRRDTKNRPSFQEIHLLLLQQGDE
The conditions noted are these: DDR2; 1 μM; read-out: % control.

The target in test [8] is T8, panel of 468 kinases (Homo sapiens, UniProt Q04771).
T8 construct: purchased KINOMEscan (ScanMAX) service
T8 sequence (Q04771 21-509): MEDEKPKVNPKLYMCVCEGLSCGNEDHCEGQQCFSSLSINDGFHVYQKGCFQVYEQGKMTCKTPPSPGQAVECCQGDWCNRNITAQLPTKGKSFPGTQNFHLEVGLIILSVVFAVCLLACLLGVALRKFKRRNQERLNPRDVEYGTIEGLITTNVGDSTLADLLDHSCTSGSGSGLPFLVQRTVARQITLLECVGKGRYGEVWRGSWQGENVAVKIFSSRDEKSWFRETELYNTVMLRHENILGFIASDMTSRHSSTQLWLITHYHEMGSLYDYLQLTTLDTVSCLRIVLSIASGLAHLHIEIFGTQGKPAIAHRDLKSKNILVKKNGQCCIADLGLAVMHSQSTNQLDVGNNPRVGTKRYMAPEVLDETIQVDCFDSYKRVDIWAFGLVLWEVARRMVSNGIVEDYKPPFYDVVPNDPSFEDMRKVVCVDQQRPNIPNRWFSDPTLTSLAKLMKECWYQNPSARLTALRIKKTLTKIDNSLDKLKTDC
Conditions: ACVR1; 1 μM; read-out: % control.

The target in test [9] is T9, panel of 468 kinases (Homo sapiens, UniProt P37173).
T9 construct: purchased KINOMEscan (ScanMAX) service
The conditions noted are these: TGFBR2; 1 μM; read-out: % control.

Test [10] addresses T10, panel of 468 kinases (Homo sapiens, UniProt P00533, L858R).
T10 construct: purchased KINOMEscan (ScanMAX) service
Conditions: EGFR(L858R); 1 μM; read-out: % control.

T2 sequence (Q9BUB5 whole entry): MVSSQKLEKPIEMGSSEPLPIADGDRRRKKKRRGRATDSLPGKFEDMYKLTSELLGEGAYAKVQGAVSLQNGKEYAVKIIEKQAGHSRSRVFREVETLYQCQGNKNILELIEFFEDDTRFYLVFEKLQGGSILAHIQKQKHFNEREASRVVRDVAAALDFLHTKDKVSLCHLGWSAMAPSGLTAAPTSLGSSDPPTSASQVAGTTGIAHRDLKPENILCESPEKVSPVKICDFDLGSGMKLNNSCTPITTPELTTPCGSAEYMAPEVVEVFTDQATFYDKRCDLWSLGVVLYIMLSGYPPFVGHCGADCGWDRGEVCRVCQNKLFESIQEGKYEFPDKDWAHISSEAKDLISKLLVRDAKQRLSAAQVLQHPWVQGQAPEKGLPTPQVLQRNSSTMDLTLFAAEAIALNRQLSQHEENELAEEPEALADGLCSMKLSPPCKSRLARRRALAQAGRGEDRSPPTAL
T6 sequence (P04629 33-796): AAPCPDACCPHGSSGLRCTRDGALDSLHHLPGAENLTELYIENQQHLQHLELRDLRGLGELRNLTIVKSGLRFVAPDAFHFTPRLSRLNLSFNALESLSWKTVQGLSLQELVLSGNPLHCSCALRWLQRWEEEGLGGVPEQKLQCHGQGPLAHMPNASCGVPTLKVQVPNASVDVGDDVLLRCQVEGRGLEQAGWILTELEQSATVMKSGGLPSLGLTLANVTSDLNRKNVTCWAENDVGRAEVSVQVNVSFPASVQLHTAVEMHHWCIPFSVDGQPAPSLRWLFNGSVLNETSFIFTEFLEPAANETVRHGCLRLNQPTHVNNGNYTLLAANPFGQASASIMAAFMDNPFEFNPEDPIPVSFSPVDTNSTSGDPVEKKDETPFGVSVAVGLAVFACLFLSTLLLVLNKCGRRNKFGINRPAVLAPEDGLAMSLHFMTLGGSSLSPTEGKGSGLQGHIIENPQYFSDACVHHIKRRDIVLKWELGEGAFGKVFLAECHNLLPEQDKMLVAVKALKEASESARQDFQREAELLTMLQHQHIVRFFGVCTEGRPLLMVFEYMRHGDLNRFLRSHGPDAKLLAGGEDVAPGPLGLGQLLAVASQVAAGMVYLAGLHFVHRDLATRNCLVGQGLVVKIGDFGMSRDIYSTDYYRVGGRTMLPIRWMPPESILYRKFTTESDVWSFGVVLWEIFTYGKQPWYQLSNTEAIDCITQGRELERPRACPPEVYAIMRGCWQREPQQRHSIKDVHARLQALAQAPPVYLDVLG
T5 sequence (P42338 whole entry): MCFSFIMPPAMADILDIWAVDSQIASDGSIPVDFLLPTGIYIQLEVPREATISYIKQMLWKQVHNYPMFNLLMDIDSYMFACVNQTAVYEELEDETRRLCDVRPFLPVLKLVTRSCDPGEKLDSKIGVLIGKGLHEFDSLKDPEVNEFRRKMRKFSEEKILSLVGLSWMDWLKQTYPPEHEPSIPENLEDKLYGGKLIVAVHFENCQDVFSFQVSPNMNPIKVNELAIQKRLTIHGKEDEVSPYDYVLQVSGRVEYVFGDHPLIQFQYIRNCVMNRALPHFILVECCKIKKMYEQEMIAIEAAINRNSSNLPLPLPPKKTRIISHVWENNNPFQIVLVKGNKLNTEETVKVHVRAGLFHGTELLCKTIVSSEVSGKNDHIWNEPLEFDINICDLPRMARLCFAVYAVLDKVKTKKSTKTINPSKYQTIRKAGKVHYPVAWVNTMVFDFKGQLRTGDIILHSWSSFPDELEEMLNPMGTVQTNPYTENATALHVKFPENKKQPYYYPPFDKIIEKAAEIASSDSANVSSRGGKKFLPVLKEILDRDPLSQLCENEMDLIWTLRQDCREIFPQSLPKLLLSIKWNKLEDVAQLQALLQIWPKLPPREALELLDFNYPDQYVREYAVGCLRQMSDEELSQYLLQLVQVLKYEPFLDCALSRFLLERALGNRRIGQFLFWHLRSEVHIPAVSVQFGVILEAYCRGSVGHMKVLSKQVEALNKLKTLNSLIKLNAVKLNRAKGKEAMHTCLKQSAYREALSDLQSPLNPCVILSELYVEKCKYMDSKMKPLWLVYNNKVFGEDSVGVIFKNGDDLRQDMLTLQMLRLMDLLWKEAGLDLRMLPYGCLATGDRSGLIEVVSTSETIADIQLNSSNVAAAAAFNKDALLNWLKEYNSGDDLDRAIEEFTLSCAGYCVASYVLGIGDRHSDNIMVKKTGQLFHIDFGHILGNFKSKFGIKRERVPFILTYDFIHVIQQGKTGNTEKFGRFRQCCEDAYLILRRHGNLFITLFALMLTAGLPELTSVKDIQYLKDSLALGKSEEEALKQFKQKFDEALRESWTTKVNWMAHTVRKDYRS
T3 sequence (P42336 whole entry H1047Y): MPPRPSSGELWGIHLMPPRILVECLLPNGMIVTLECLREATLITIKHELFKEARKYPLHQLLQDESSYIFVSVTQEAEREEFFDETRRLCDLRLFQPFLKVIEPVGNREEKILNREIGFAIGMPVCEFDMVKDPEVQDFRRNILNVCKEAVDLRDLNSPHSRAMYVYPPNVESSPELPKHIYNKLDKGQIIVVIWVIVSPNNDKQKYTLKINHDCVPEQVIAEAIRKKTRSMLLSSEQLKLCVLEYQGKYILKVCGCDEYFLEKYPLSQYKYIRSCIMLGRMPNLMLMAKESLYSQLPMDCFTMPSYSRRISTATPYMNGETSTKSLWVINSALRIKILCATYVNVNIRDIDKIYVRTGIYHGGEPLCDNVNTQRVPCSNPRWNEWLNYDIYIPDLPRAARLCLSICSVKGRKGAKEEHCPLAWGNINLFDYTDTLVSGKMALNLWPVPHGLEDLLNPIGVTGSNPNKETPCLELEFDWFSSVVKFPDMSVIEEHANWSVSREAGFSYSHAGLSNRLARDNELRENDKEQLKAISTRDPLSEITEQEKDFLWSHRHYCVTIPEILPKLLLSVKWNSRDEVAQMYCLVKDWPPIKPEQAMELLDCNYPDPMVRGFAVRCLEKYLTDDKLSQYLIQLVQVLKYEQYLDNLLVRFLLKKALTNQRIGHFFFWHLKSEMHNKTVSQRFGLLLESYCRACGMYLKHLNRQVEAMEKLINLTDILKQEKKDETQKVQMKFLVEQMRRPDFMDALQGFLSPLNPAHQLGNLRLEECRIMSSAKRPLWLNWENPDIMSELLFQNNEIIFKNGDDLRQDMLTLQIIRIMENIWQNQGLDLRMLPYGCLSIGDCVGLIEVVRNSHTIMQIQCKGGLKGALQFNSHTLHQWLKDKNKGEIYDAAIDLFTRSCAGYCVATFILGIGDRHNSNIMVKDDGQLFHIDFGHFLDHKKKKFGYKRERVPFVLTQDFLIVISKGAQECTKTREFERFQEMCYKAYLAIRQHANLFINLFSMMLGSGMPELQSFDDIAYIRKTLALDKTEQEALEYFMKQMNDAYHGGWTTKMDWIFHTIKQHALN
T4 sequence (Q8N568 whole entry): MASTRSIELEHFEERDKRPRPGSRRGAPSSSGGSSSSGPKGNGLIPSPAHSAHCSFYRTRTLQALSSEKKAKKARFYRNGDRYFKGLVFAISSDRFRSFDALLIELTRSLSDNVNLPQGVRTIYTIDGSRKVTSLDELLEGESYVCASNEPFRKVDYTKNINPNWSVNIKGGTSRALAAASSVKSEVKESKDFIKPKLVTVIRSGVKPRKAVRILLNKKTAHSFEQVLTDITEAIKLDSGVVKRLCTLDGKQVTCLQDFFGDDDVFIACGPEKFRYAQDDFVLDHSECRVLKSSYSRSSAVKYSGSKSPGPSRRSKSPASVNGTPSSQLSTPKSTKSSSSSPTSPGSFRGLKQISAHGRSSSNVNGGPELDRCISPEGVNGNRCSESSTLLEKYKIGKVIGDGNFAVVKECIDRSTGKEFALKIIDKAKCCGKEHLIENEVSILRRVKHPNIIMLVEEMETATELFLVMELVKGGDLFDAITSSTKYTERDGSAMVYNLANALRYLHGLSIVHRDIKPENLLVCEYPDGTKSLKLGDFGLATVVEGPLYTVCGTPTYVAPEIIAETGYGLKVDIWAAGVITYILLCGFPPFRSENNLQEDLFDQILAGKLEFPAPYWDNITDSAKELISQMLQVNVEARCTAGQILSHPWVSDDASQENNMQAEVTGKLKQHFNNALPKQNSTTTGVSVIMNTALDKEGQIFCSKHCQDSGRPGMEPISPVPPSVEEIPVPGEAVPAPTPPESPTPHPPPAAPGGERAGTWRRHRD
T9 sequence (P37173 23-567): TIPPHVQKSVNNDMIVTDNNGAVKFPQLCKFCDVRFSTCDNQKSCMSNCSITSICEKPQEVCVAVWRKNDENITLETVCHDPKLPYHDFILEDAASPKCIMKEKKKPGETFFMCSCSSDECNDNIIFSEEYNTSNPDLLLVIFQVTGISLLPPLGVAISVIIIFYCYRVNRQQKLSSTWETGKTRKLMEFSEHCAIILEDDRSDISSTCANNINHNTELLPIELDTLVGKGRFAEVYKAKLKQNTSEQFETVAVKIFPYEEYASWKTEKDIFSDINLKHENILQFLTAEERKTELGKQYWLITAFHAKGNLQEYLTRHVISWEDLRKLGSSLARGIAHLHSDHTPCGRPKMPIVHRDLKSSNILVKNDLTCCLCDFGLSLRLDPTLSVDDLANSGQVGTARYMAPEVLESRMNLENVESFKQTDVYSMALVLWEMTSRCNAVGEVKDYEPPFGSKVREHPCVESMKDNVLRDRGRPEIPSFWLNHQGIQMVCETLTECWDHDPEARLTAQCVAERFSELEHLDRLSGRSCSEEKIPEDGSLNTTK

For `CNc1nc(Nc2ccc(C(=O)N3CCC(N4CCOCC4)CC3)c3c2OCO3)nc2[nH]cc(Cl)c12` [Compound 75, (7-((5-chloro-4-(methylamino)-7H-pyrrolo[2,3-d]pyrimidin-2-yl)amino)benzo[d][1,3]dioxol-4-yl)(4-morpholinopiperidin-1-yl)methanone], the remaining binding at 1 µM in [1] amounted to 7.2%; in test [2], 100%; in [3] it was 68%; in test [4] it was 99%; in [5], 89%; in test [6], 70%. Besides, the remaining binding at 1 µM came to 93% in [7], 100% in [8], 100% in [9] and 100% in [10].

For the compound `CNc1nc(Nc2ccc(P3(=O)CCN(C4CCOCC4)CC3)cc2OC)nc2[nH]cc(Cl)c12` [Compound 77, 4-(4-((5-chloro-4-(methylamino)-7H-pyrrolo[2,3-d]pyrimidin-2-yl)amino)-3-methoxyphenyl)-1-(tetrahydro-2H-pyran-4-yl)-1,4-azaphosphinane 4-oxide], the remaining binding at 1 µM was 68% in test [1]; 100% in [2]; 73% in test [3]; 100% in test [4]; 71% in [5]; 100% in test [6]. Further, the remaining binding at 1 µM in test [7] was determined as 84%; in [8] it was 100%; in test [9], 100%; in test [10] it was 76%.

For the compound `CNc1nc(Nc2ccc(S(=O)(=O)N3CCC(N4CCOCC4)CC3)cc2OC)nc2[nH]cc(Cl)c12` [Compound 12, 5-chloro-N2-(2-methoxy-4-((4-morpholinopiperidin-1-yl)sulfonyl)phenyl)-N4-methyl-7H-pyrrolo[2,3-d]pyrimidine-2,4-diamine], the remaining binding at 1 µM came to 89% in test [1]; 100% in [2]; 64% in test [3]; 96% in [4]; 80% in test [5]; 100% in test [6]. Further, the remaining binding at 1 µM in [7] worked out at 84%; in test [8], 100%; in [9], 100%; in [10], 100%.
